In patent publication US6646006B2, “Enhancement of vascular function by modulation of endogenous nitric oxide production or activity” (The Board of Trustees of the Leland Stanford Junior …, priority 1993, dated 2003):

How the values were obtained:
[1] = tested on: Smooth muscle cells (SMC); experiment: Oxidized LDL-exposed aortic smooth muscle cells: MCP-1, superoxide anion, NFκB; assay type: cell-based, rabbit; settings: DETA-NONOate 100 μM pre-exposure, oxLDL 30 μg/ml
Procedure: (§1) Methods and Results. Smooth muscle cells (SMC) were isolated from normal rabbit aortae by explant method. Cells were then exposed to oxidized LDL (30 μg/ml) (which is known to induce vascular cells to synthesize MCP-1). […] All of these effects of oxidized LDL cholesterol were reduced by previous exposure of the SMC to the NO-donor DETA-NONOate (100 μM) (p<0.05). To determine if NO exerted its effect at a transcriptional level, SMC and COS cells were transfected with a 400 bp fragment of the MCP-1 promoter. Enhanced promoter activity by oxLDL was inhibited by DETA-NO.

MCP-1 promoter = MCP-1 promoter activity in transfected SMC and COS cells; assay type: cell-based; settings: 400 bp promoter fragment
Procedure: as §1

[2] = tested on: hypercholesterolemic rabbits; experiment: Oral L-lysine in cholesterol-fed rabbits: vasorelaxation and histomorphometry; assay type: in vivo, rabbit; settings: ten weeks
Source text: FIG. 9 is a set of dose-response curves showing the effect of chronic lysine administration on endothelium dependent vasodilation in hypercholesterolemic rabbits. […] Chronic administration of lysine was just as effective as arginine in restoring vascular function and structure. (See Ex. 14)
L-lysine is a basic amino acid like L-arginine, but is not known to be metabolized by NO synthase to NO. Therefore, the following results were unexpected. New Zealand white rabbits were fed a normal or high cholesterol chow (n=18). Half of the animals on the cholesterol diet also received oral L-lysine. After ten weeks, the thoracic aortae were harvested and bioassayed for vascular NO synthesis, and histomorphometry to assess lesion formation was performed as described above.

platelets = experiment: ADP-initiated platelet aggregation (nephelometry), platelets from treated rabbits; assay type: in vivo, rabbit; settings: N-methylarginine 10^−4 M in vitro
Procedure: The effect of L-arginine supplementation on platelet reactivity in rabbits that had normal chow (Control; n=6), a 1% cholesterol diet (Chol; n=5), or a 1% cholesterol diet supplemented with oral arginine (Arg; n=6), as detailed above, was examined. Arterial blood obtained after central ear artery cannulation was anticoagulated with 13 mM sodium citrate. Platelet-rich suspension was prepared by washing platelets in calcium-free Krebs-Henseleit solution and resuspending them in Tyrode's solution with albumin. Aggregation was initiated by addition of adenosine diphosphate and monitored by standard nephelometric techniques. In platelets derived from Chol animals, aggregation was not different in rate or maximum extent in comparison to platelets from Control animals (A, in FIG. 2). By contrast, aggregation of platelets from Arg animals was reduced by 50% (B, in FIG. 2).
Therefore, the anti-platelet effect of chronic oral arginine administration can be credited to an increased synthesis of endogenous NO. Furthermore, NO synthesis may be induced in both the platelets and the endothelium.

[3] = tested on: human aortic endothelial cells (HAEC); experiment: Flow-exposed human aortic endothelial cells: THP-1 monocyte binding after oxLDL or LPS/TNF; assay type: cell-based; settings: oxLDL 30 μg/ml
Procedure: FIG. 6. Stimulation of cultured endothelial cells with fluid flow causes them to secrete nitric oxide. Flow-induced secretion of nitric oxide decreases endothelial adhesiveness induced by oxidized LDL cholesterol (oxLDL; 30 μg/ml). Exposure of human aortic endothelial cells to oxLDL increased the ex vivo binding of monocytes when compared to Control. In comparison to cells not exposed to flow (static), previous exposure to flow inhibited the monocyte adhesion induced by oxLDL. These effects of flow were blocked by NO synthase inhibitors and mimicked by NO donors (PAPA-NO) or cyclic GMP (cGMP). Bars represent mean±SEM. *p<0.05; **p<0.01. (See Ex. 8)
Methods and Results: Confluent monolayers of human aortic endothelial cells (HAEC) were exposed to static or fluid flow conditions for 4 hours (fluid flow stimulates the production of endogenous nitric oxide). Medium was then replaced and cells were then incubated with native LDL (50 μg/ml), oxidized LDL (30 μg/ml), or LPS (10 ng/ml)+TNF-α (10 U/ml) for an additional 4 hours. Functional binding assays utilizing THP-1 monocytes were then performed. Superoxide production by HAECs was monitored by lucigenin chemiluminescence and expression of the adhesion molecules VCAM-1 and ICAM-1 was quantitated by flow cytometry. […] Previous exposure to fluid flow inhibited endothelial adhesiveness for monocytes (FIG. 6) and the other sequelae of exposure to cytokines or oxidized lipoprotein.

[4] = tested on: hypercholesterolemic rabbits; settings: vs 1% cholesterol diet alone, ten weeks
Source text: At ten weeks animals were sacrificed for studies of platelet and vascular reactivity, and histomorphometry.

## NCCN(CCN)/[N+]([O-])=N/O [DETA-NONOate]
[1]
  activity of NFκB induced by oxidized LDL: reduced
  expression of MCP-1 induced by oxidized LDL: reduced
  generation of superoxide anion induced by oxidized LDL: reduced
MCP-1 promoter
  MCP-1 promoter activity enhanced by oxLDL: inhibited

## NCCCC[C@H](N)C(=O)O [L-lysine]
[2]
  vascular NO activity (endothelium-dependent vasorelaxation): just as effective as L-arginine
  vascular lesion formation / plaque area: marked reduction
[2]; listed as lysine
  vascular NO activity (endothelium-dependent vasorelaxation): improved

## CN[C@@H](CCCNC(=N)N)C(=O)O [N-methylarginine, reference compound]
platelets
  reversal of the arginine-induced reduction of platelet reactivity: could be reversed
platelets; listed as LNMMA
  reversal of the arginine-induced reduction of platelet reactivity: reverses

## CCCN(CCCN)/[N+]([O-])=N/O [PAPA-NONOate]
[3]
  mimicry of the effects of flow on monocyte adhesion: mimicked the effects of flow
[3]; listed as PAPA-NO
  mimicry of the effects of flow on monocyte adhesion: mimicked

## Nc1nc2c(ncn2[C@@H]2O[C@@H]3COP(=O)(O)O[C@H]3[C@H]2O)c(=O)[nH]1 [cGMP, cyclic guanosine monophosphate]
[3]
  mimicry of the effects of flow on monocyte adhesion: mimicked

## CSCC[C@H](N)C(=O)O [methionine]
[4]
  endothelium-dependent relaxation: not different
  intimal thickness: not different
  platelet aggregation: not different
